According to article PMC10580953, “In vitro and intracellular activities of novel thiopeptide derivatives against macrolide-susceptible and macrolide-resistant Mycobacterium avium complex” (Microbiology Spectrum, 2023):
Values after ≈ are worked out from the molar mass of the structure shown. “Also recorded” adds a separate entry of the source.

Assays:
[1] = Aqueous kinetic solubility; type: physicochemical; conditions: for solubility at 2 h: aqueous buffer, kinetic from dmso stock, free form, deionized water pH 7.4, 1% DMSO; for Fold increase, Free form: solubility of free form compared to MP2; for solubility: thermodynamic from solid, HCl salt in deionized water
Experimental: The aqueous kinetic solubility was determined by preparing a 20 mM DMSO stock solution of test compounds and incubating an aliquot of this solution in deionized water at pH 7.4 to set a 1% final concentration of DMSO. In the case of HCl salt compounds, 1–2 mg of compound was weighed and dissolved in deionized water to yield an approximately 10 mg/mL solution. After initial mixing using brief vortexing and sonication, samples were equilibrated by shaking for 2 h at room temperature. Suspensions or solutions with visible particles were filtered through 0.22 µm PVDF membrane filters. The dissolved drug concentration was analyzed using UPLC-MS. To determine the solubility of the HCl salt, 1 mg of compound was weighed into a 2 mL glass tube, and a fixed volume of deionized water was added to yield an approximately 10 mg/mL solution. The solution was equilibrated by shaking for 24 h at room temperature. After equilibration, the vials were visually examined. If a clear solution was obtained, solubility was reported as >mg/mL.

MAC in murine BMDMs = experiment: Intracellular anti-MAC activity in infected BMDMs, summary statements for MAC; type: cell-based, Mycobacterium avium complex; conditions: for intracellular activity in BMDMs infected with macrolide-resistant MAC clinical isolates: 10 µg/mL, 72 h (Fig. 5 and 6)
Experimental: (§1) BMDMs were obtained from 6-week-old female BALB/c mice. Bone marrow cells were differentiated into BMDMs using Dulbecco’s Modified Eagle Medium (Biowest) supplemented with 10% fetal bovine serum (Biowest) and 10% L929 cell supernatant as previously described ([58]).
(§2) BMDMs were seeded at 4 × 10^5 cells/mL in a 48-well plate and incubated overnight at 37°C. MAC strains were infected at a multiplicity of infection of 3 for 4 h and washed with DPBS twice. The cells were then cultured in the absence or presence of drugs in triplicate wells for 72 h. After incubation, the cells were lysed with 0.05% Triton X-100, and the cell lysates serially diluted with DPBS were spotted on 7H10 agar plates supplemented with OADC to count the number of viable bacteria. Colonies were enumerated after 7 d of incubation at 37°C, and the values are reported as the mean CFU ± standard deviation (SD) per mL. All experiments were repeated at least three times independently.

[2] = test system: macrolide-resistant M. avium clinical isolates in BMDMs; experiment: Intracellular activity in BMDMs, macrolide-resistant M. avium clinical isolates; type: cell-based, Mycobacterium avium; conditions: five macrolide-resistant M. avium clinical isolates, 10 µg/mL, 72 h (Fig. 5)
Experimental: as §1, §2

M. avium ATCC 700898 = conditions: for drug-drug interaction with CLR: synergism FICI ≤0.5, additive 0.5 < FICI ≤ 1, indifferent 1 < FICI ≤ 4, antagonistic FICI >4
Experimental: (§3) To evaluate the efficacy of the combination of agent A and agent B, a fractional inhibitory concentration (FIC) index was calculated as follows: FICI = (FIC of agent A) + (FIC of agent B) = (MIC of agent A in combination/MIC of agent A alone) + (MIC of agent B in combination/MIC of agent B alone). Synergism is defined as FICI ≤0.5, additive as 0.5 < FICI ≤ 1, indifferent as 1 < FICI ≤ 4, and antagonistic as FICI >4. The cultured bacteria were diluted to a 0.005 OD600 in 7H9 broth containing 5% OADC, and the antimicrobial agents were prepared by serial dilutions to a final concentration of 0.03–4 μg/mL. For the evaluation of inhibitory concentrations, the plates were incubated at 37°C for 5–7 d. Then, MIC values were assessed by REMA, and the FICI was calculated.

[3] = test system: M. intracellulare ATCC 13950; conditions: for drug-drug interaction with CLR: synergism FICI ≤0.5, additive 0.5 < FICI ≤ 1, indifferent 1 < FICI ≤ 4, antagonistic FICI >4
Experimental: as §3

[4] = test system: macrolide-resistant M. avium; experiment: MIC by REMA, macrolide-resistant M. avium strains
Excerpt: (§4) Reference strains were purchased from the American Type Culture Collection (ATCC; Manassas, VA, USA). All clinical MAC isolates, including macrolide-susceptible and macrolide-resistant strains, were kindly provided by Samsung Medical Center (SMC; Seoul, South Korea) and Asan Medical Center (AMC; Seoul, South Korea). All strains were cultivated in Middlebrook 7H9 liquid broth (Difco Laboratories, Detroit, MI) supplemented with 10% oleic acid-albumin-dextrose-catalase (OADC) or plated on Middlebrook 7H10 agar (Difco Laboratories) with 10% OADC enrichment at 37°C.
(§5) The MICs of all the reagents were determined using the REMA method based on guidelines by the Clinical and Laboratory Standards Institute ([57]). […] The cultures were diluted to an OD600 = 0.001 in 7H9 broth with 5% OADC. […] Two controls (broth only and bacteria only) were incubated to check for other contamination (broth only) and the growth of tested bacteria (bacteria only).
(§6) PCR amplification and sequencing for CLR were based on 23S rRNA. The primers and PCR conditions were as reported previously ([59]). PCR was carried out in a final volume of 20 µL and contained EzPCR Basic 5 × premix (ELPIS, Daejeon, South Korea), 13 µL of sterile dH2O, 1 µL of each forward and reverse primer, and 1 µL of template DNA. The PCR products were run on 1% agarose gels and purified using a NEXprep Gel/PCR Purification Mini Kit (Geneslabs, Gyeonggi, South Korea) for DNA cleanup. Purified PCR products were sequenced by Sanger sequencing in Bionics (Seoul, South Korea) with their gene-specific forward and reverse primers. Sequences obtained from Bionics were subjected to BLAST searches to compare nucleotide sequences with reference strains.

M. avium = experiment: MIC by resazurin microtiter assay (REMA), M. avium strains
Experimental: (§7) Reference strains were purchased from the American Type Culture Collection (ATCC; Manassas, VA, USA). […] All strains were cultivated in Middlebrook 7H9 liquid broth (Difco Laboratories, Detroit, MI) supplemented with 10% oleic acid-albumin-dextrose-catalase (OADC) or plated on Middlebrook 7H10 agar (Difco Laboratories) with 10% OADC enrichment at 37°C.
as §5

[5] = test system: macrolide-resistant M. intracellulare; experiment: MIC by REMA, macrolide-resistant M. intracellulare strains; conditions: Mycobacterium intracellulare
Excerpt: as §4, §5, §6

M. intracellulare = experiment: MIC by resazurin microtiter assay (REMA), M. intracellulare strains
Experimental: as §7, §5

M. avium in murine BMDMs = experiment: Intracellular anti-MAC activity in infected BMDMs, M. avium; type: cell-based, Mycobacterium avium
Experimental: as §1, §2

[6] = M. avium (SMC#1216), 23S rRNA A2058/A2059 C/A
[7] = Mycobacterium avium, M. avium (SMC#420), 23S rRNA A2058/A2059 C/A
[8] = Mycobacterium avium, M. avium (SMC#422), 23S rRNA A2058/A2059 A/G
[9] = Mycobacterium avium, M. avium (SMC#1213), 23S rRNA A2058/A2059 T/A
[10] = Mycobacterium avium, ATCC700898
[11] = Mycobacterium avium, M. avium (SMC#6)
[12] = Mycobacterium avium, M. avium (SMC#1637)
[13] = M. intracellulare (AMC#24), 23S rRNA A2058/A2059 G/A
[14] = M. intracellulare (SMC#104), 23S rRNA A2058/A2059 G/A
[15] = M. intracellulare (SMC#414), 23S rRNA A2058/A2059 A/G
[16] = Mycobacterium intracellulare, ATCC13950, M. intracellulare (ATCC 13950), reference strain
[17] = Mycobacterium intracellulare, M. intracellulare (SMC#8)
[18] = Mycobacterium intracellulare, M. intracellulare (SMC#12)
[19] = M. intracellulare (SMC#400), 23S rRNA A2058/A2059 C/A
[20] = M. intracellulare (SMC#418), 23S rRNA A2058/A2059 G/A
[21] = combination with CLR, synergism FICI ≤0.5, additive 0.5 < FICI ≤ 1

Compound | solubility at 2 h [1] [µg/mL] | Fold increase, Free form [1] | solubility [1] [µg/mL] | intracellular activity in BMDMs infected with macrolide-resistant MAC clinical isolates (MAC in murine BMDMs) | drug-drug interaction with CLR (M. avium ATCC 700898) | drug-drug interaction with CLR [3] | MIC [4, 6] [µg/mL] | MIC ([4]; Mycobacterium avium) [µg/mL] | MIC [4, 7] [µg/mL] | MIC [4, 8] [µg/mL] | MIC [4, 9] [µg/mL] | MIC (M. avium; M. avium (SMC#7)) [µg/mL] | MIC (M. avium; [11]) [µg/mL] | MIC (M. avium; [12]) [µg/mL] | MIC [5, 13] [µg/mL] | MIC [5, 14] [µg/mL] | MIC [5, 15] [µg/mL] | MIC (M. intracellulare; M. intracellulare (SMC#831)) [µg/mL] | MIC (M. intracellulare; M. intracellulare (SMC#2087)) [µg/mL] | MIC (M. intracellulare; Mycobacterium intracellulare) [µg/mL] | further results
C/C=C1\NC(=O)[C@H]([C@@H](C)O)NC(=O)c2csc(n2)-c2ccc(-c3nc(-c4nc(C(=O)NC5(C(=O)NCCN6CCN(C[C@@H](O)CO)CC6)CC5)cs4)cs3)nc2-c2csc(n2)[C@H]([C@@H](C)O)NC(=O)c2csc(n2)[C@H](C(C)C)NC(=O)c2csc1n2 [AJ-206] | 102 (≈ 80.2 µM) | ×1,457 fold | > 10000 | significant decrease in CFUs | strongest synergistic effect; also recorded: Synergistic effects | relatively weak but synergistic effect; also recorded: Synergistic effects | 0.125 (≈ 0.0982 µM) | 0.125 (≈ 0.0982 µM) | 0.5 (≈ 0.393 µM) | 1 (≈ 0.786 µM) | 1 (≈ 0.786 µM) | 0.5 (≈ 0.393 µM) | 0.125 (≈ 0.0982 µM) | 0.125 (≈ 0.0982 µM) | 0.125 (≈ 0.0982 µM) | 0.125 (≈ 0.0982 µM) | 0.125 (≈ 0.0982 µM) | 0.125 (≈ 0.0982 µM) | 0.125 (≈ 0.0982 µM) | 0.125 (≈ 0.0982 µM) | intracellular growth of MAC in BMDMs (MAC in murine BMDMs; MAC-infected BMDMs, 72 h (Fig. 2)): remarkably inhibited the intracellular growth of MAC to a similar degree as CLR; also recorded: significantly reduced the number of MAC CFUs inside macrophages; intracellular bacterial growth in BMDMs [2]: notably inhibited intracellular bacterial growth; MIC (M. avium; Mycobacterium avium): 0.5 µg/mL (≈ 0.393 µM); MIC (M. avium; [10]): 0.5 µg/mL (≈ 0.393 µM); MIC (M. intracellulare; [16]): 0.5 µg/mL (≈ 0.393 µM); MIC (M. intracellulare; Mycobacterium intracellulare, M. intracellulare (SMC#7)): 0.25 µg/mL (≈ 0.196 µM); MIC (M. intracellulare; [17]): 0.5 µg/mL (≈ 0.393 µM); MIC (M. intracellulare; [18]): 0.5 µg/mL (≈ 0.393 µM); MIC (M. intracellulare; Mycobacterium intracellulare, M. intracellulare (SMC#699)): 0.5 µg/mL (≈ 0.393 µM)
COc1nc2ccc(Br)cc2cc1[C@@H](c1ccccc1)[C@@](O)(CCN(C)C)c1cccc2ccccc12 [bedaquiline, reference compound] | – | – | – | – | synergistic effects were not observed | synergistic effects were not observed | – | – | – | – | – | – | – | – | – | – | – | – | – | – | –
CC[C@H]1OC(=O)[C@H](C)[C@@H](O[C@H]2C[C@@](C)(OC)[C@@H](O)[C@H](C)O2)[C@H](C)[C@@H](O[C@@H]2O[C@H](C)C[C@H](N(C)C)[C@H]2O)[C@](C)(OC)C[C@@H](C)C(=O)[C@H](C)[C@@H](O)[C@]1(C)O [CLR, clarithromycin, reference compound] | – | – | – | resistance | – | – | – | – | > 64 | > 64 | > 64 | 0.5 (≈ 0.668 µM) | 0.125 (≈ 0.167 µM) | 0.125 (≈ 0.167 µM) | > 64 | > 64 | > 64 | 0.125 (≈ 0.167 µM) | 0.125 (≈ 0.167 µM) | 0.125 (≈ 0.167 µM) | MIC ([4]; Mycobacterium avium, M. avium (SMC#417), 23S rRNA A2058/A2059 C/A): > 64 µg/mL; MIC ([4]; Mycobacterium avium, M. avium (SMC#1216), 23S rRNA A2058/A2059 C/A): > 64 µg/mL; MIC (M. avium; Mycobacterium avium): 0.5 µg/mL (≈ 0.668 µM); MIC (M. avium; [10]): 0.5 µg/mL (≈ 0.668 µM); MIC [5, 19]: > 64 µg/mL; MIC [5, 20]: > 64 µg/mL; MIC (M. intracellulare; M. intracellulare (SMC#9)): 0.125 µg/mL (≈ 0.167 µM); MIC (M. intracellulare; M. intracellulare (SMC#699)): 0.125 µg/mL (≈ 0.167 µM); MIC (M. intracellulare; [16]): 0.25 µg/mL (≈ 0.334 µM); MIC (M. intracellulare; [17]): 0.25 µg/mL (≈ 0.334 µM); MIC (M. intracellulare; [18]): 0.25 µg/mL (≈ 0.334 µM)
C/C=C1\NC(=O)[C@H]([C@@H](C)O)NC(=O)c2csc(n2)-c2ccc(-c3nc(-c4nc(C(=O)NC5(C(=O)NCCCN6C(=O)CNC6=O)CC5)cs4)cs3)nc2-c2csc(n2)[C@H]([C@@H](C)O)NC(=O)c2csc(n2)[C@H](C(C)C)NC(=O)c2csc1n2 [AJ-039] | 2.98 (≈ 2.43 µM) | ×43 fold | 25.2 | relatively little activity | additive effect | additive effect | 0.125 (≈ 0.102 µM) | 0.125 (≈ 0.102 µM) | 0.5 (≈ 0.408 µM) | 4 (≈ 3.26 µM) | 2 (≈ 1.63 µM) | – | 0.125 (≈ 0.102 µM) | 0.125 (≈ 0.102 µM) | 0.125 (≈ 0.102 µM) | 0.125 (≈ 0.102 µM) | 0.125 (≈ 0.102 µM) | 0.125 (≈ 0.102 µM) | 0.125 (≈ 0.102 µM) | 0.125 (≈ 0.102 µM) | Fold increase, HCl salt ([1]; solubility of HCl salt compared to MP2): ×360 fold; CFUs in BMDMs, drug alone (M. avium in murine BMDMs; M. avium SMC#7 (Fig. 2C)): did not reduce CFUs; intracellular activity of combination with CLR compared to CLR alone (M. avium in murine BMDMs; M. avium SMC#7, each drug 10 µg/mL, 72 h): not significant compared to that of CLR alone; FICI (M. avium ATCC 700898; [21]): 0.54; FICI [3, 21]: 0.56; MIC (M. avium; Mycobacterium avium, ATCC700898, M. avium (ATCC 700898), reference strain): 0.125 µg/mL (≈ 0.102 µM); MIC (M. avium; Mycobacterium avium, M. avium (CP000479.1), reference strain): 0.125 µg/mL (≈ 0.102 µM); MIC (M. avium; Mycobacterium avium, M. avium (SMC#7)): 0.125 µg/mL (≈ 0.102 µM); MIC [5, 19]: 0.125 µg/mL (≈ 0.102 µM); MIC [5, 20]: 0.125 µg/mL (≈ 0.102 µM); MIC (M. intracellulare; M. intracellulare (SMC#8)): 0.125 µg/mL (≈ 0.102 µM); MIC (M. intracellulare; M. intracellulare (SMC#9)): 0.125 µg/mL (≈ 0.102 µM); MIC (M. intracellulare; M. intracellulare (SMC#12)): 0.125 µg/mL (≈ 0.102 µM); MIC (M. intracellulare; M. intracellulare (SMC#699)): 0.125 µg/mL (≈ 0.102 µM); MIC (M. intracellulare; Mycobacterium intracellulare, ATCC13950): 0.125 µg/mL (≈ 0.102 µM)
